Data published in patent publication US20260071150A1, “MICROBIAL ENHANCED COMPOSITIONS WHICH OVERCOME ANTAGONISTIC SURFACTANT INCOMPATIBILITY” (Stepan Company, priority 2023, published 2026).
Read-outs that look alike come from different tables or passages of the source.

What was measured:
[1] = test system: Bacillus species mix in spore form; test: dyed extra-virgin olive oil (EVOO) digestion test with Stat-Ease 360 optimization; format: cell-based
Procedure: Because EVOO is a food source for vegetative cells, lightly-dyed EVOO added to a test sample containing bacterial spores can be an indicator of biological activity. […] Each test composition also included 0.20 g of 33 g/L Nutrient Mix (30 g/L Tryptic Soy Broth BD211825 and 3 g/L Yeast Extract BD212750 at pH 7.1-7.4). The test composition is mixed, then stored at 37° C. for 2-3 days to condition the spores. […] The initial oil drop is digitally photographed, and re-photographed after 4 days of gentle swirling on an orbital shaker at a setting of 1-2 on a scale of 0-10. Oil drop sizes are determined by transferring the photographed images to a computer and measuring the major diameter of each oil drop using a Tracker.jar line profile analysis (https://physlets.org/tracker/) to determine the length of the diameter in units of pixels. Oil drop sizes of initial and digested test samples are compared. […] An increase in measured drop diameter is interpreted as a change in surface tension due to the surfactant, combined with no or minimal EVOO digestion by the bacteria.
Stat-Ease 360 software was used to generate each design of experiment sample group, model the test results from the resulting data, and generate statistics for the optimal models. The models were then used to generate an optimization plot using Stat-Ease 360's Numerical Optimization function. The optimization includes a contour plot of “desirability” of component levels for the defined design space. These plots visually represent the complex relationships between the surfactant and additive components and show where desired performance is high and where it is low or zero.

[2] = physical stability (spore dispersion) of test compositions; format: physicochemical
Procedure: The alpha sulfonated alkyl ester test compositions from Example 3 were used for this stability assessment because, unexpectedly, the spores in some of the test compositions remained fully dispersed in the compositions after sitting for 1 week, even though the test compositions were at use dilution and water thin. Physical stability of the test compositions was assessed by photographing the test compositions in the parent sample jars (from which the Example 3 samples were taken), looking down on the sample jars, and quantifying the degree of precipitation via Tracker.jar image analysis.

[3] = test system: Bacillus species mix in spore form; test: un-dyed EVOO test, visual haze; conditions: for biological activity (haze), magnesium salt in the additive: 0.2 wt % rhamnolipids, 0.03 wt % L-alanine, 0.03 wt % potassium nitrate, 0.14 wt % magnesium salt; for biological activity (haze), low foam alkoxylate with additives: 1.0 wt % TOXIMUL 8240, 0.09 wt % L-alanine
Procedure: Comparative compositions were also prepared comprising the surfactant and bacterial spores, but no additive. Control compositions contained the bacterial spores, with and without additives, but no surfactant. All test, comparative and control compositions contained 2 wt % of 3.3 g/L Nutrient Mix. The pH was adjusted to pH of 7 if needed, using L-lactic acid or dilute NaOH. The compositions were photographed initially, then re-photographed after 4 and 5-7 days of orbital-mixer shaking at setting “5”, and initial and aged compositions were compared visually to determine differences.

[4] = test system: beneficial microorganisms; test: compatibility of surfactants and builders with beneficial microorganisms; format: cell-based
Procedure: The compositions of the present technology comprise at least one surfactant that is incompatible with a beneficial microorganism. Incompatibility between a surfactant and a beneficial microorganism has been investigated in various ways, such as a standard Zone of Inhibition test, a standard agar plating test, or a standard resazurin (7-hydroxy-10-oxidophenoxazin-10-ium-3-one, sodium) (a blue fluorogenic dye) compatibility assay. In a Zone of Inhibition test, microorganisms are grown, cultured, diluted down to target levels, and then applied to a Petri dish containing agar nutrients. Test samples containing the surfactant of interest are diluted and loaded into an agar well created within the agar nutrient. The plates are incubated and microorganism growth is allowed to develop. […] This halo is referred to as the zone of inhibition. The larger the zone, the bigger the effect of inhibition. Major suitability limitations for non-antibiotics test samples for this test method are inherent large dilution of active, agar diffusion challenges, and nutrient media incompatibilities (neutralization, precipitation, etc). Although this method has been used in the medical field for antibiotics very successfully for decades, it has low suitability when testing non-antibiotic samples. In a standard agar plating test, test samples containing the surfactant of interest and microorganisms are exposed, diluted several orders of magnitude, and plated onto a nutritive agar that is incubated. After an incubation period appropriate for the species, the microorganism growth pattern is evaluated against appropriate controls. […] The test samples are incubated and then inspected for colorometric and fluorescence change. Test samples that are blue and have low fluorescence indicate no biological activity and incompatibility between the surfactant and the microorganism. Test samples that are pink and have high fluorescence indicate biological activity and compatibility of the surfactant with the microorganism. […]

Bacillus spore blend = test: diluted concentrate EVOO haze test; format: cell-based
Procedure: Concentrates of two test formulations were prepared comprising the alkyl ether sulfate surfactant at 7.5 wt % actives, a Bacillus spore blend at 10.0 wt % (5×10^9 CFU/g), a mixture of 0.75 wt % potassium chloride and 0.75 wt % magnesium nitrate, and water to total 100%. Castor oil 36EO alkoxylate (TOXIMUL® 8240) (100% active) in an amount of 1.5 wt % was added to one of the test formulations. Two comparative concentrate compositions were also prepared. One comparative composition comprised the same amount of surfactant and spores but no additive or TOXIMUL® 8240, and the other comparative composition comprised the same amount of surfactant, spores, and TOXIMUL® 8240, but no additive. A total of 20 g of each concentrate composition was prepared.
For the test, each concentrate composition was diluted to 2.0 wt % (1×10^8 CFU/g) in a 4 oz glass jar, with 1 wt % 33 g/L Nutrient (30 g/L Tryptic Soy Broth+3 g/L Yeast Extract), 0.2 wt % Extra Virgin Olive Oil (EVOO), and water to total 50.0 g total weight. The jars were mixed on the orbital shaker for 15-30 minutes and initially photographed, and then mixed on the orbital shaker for 7 days and re-photographed.
Concentrates of the four test formulations were prepared comprising the calcium alkyl benzene sulfonate surfactant at 7.5 wt % actives, a Bacillus spore blend at 10.0 wt % (5×10^9 CFU/g), 1.5 wt % of the respective additive mixture, and water to total 100%. Each concentrate was 20 g total weight. Two control concentrates were also prepared. The positive control concentrate contained 10 wt % of the Bacillus spore blend and water, and the negative control concentrate contained 10 wt % of the Bacillus spore blend, 7.5 wt % surfactant actives, and water.

[5] = alkyl sarcosinate MAPROSYL 30-B, FIG. 3
[6] = alpha-sulfonated alkyl ester ALPHA-STEP PC-48, additives with glucose, FIG. 5
[7] = alpha-sulfonated alkyl ester ALPHA-STEP PC-48, additives without glucose, FIG. 4
[8] = surfactant 0.2 wt % active, 0.09 wt % potassium nitrate, 0.02 wt % magnesium chloride hexahydrate, 7 days
[9] = concentrate 7.5 wt % surfactant actives diluted to 2.0 wt %

## O=[N+]([O-])[O-].[K+] [KNO3, potassium nitrate]
[1]; [5]
  desirability (optimization contour plot of EVOO digestion): high desirability
[1]; [6]
  desirability (optimization contour plot of EVOO digestion): high desirability
[1]; [7]
  desirability (optimization contour plot of EVOO digestion): high desirability
[2]; alpha sulfonated alkyl ester test compositions of Example 3, FIG. 10
  desirability (contour plot combining digestion and physical stability): higher desirability

## C[C@H](N)C(=O)O [L-alanine]
[1]; [5]
  desirability (optimization contour plot of EVOO digestion): high desirability
[1]; [6]
  desirability (optimization contour plot of EVOO digestion): low to zero desirability
[1]; [7]
  desirability (optimization contour plot of EVOO digestion): high desirability
[1]; rhamnolipid surfactant, additives without glucose, FIG. 1
  desirability (optimization contour plot of EVOO digestion): high desirability
[2]
  desirability (contour plot combining digestion and physical stability): higher desirability

## O=C([O-])CC(O)(CC(=O)[O-])C(=O)O.[Mg+2] [Mg(Citrate) dibasic]
[3]; 7 days
  biological activity (haze), magnesium salt in the additive: restore biological activity

## O=[N+]([O-])[O-].O=[N+]([O-])[O-].[Mg+2] [Mg(NO3)2, magnesium nitrate]
[3]; 7 days
  biological activity (haze), magnesium salt in the additive: restore biological activity

## O=S(=O)([O-])[O-].[Mg+2] [MgSO4, magnesium sulfate]
[3]; 7 days
  biological activity (haze), magnesium salt in the additive: restore biological activity

## C=CCCCCCCCC(=O)N(C)C [STEPOSOL MET-10U]
[4]
  compatibility with beneficial microorganisms: compatible

## O.O.O=C([O-])CC(O)(CC(=O)[O-])C(=O)[O-].[Na+].[Na+].[Na+] [sodium citrate dihydrate]
[4]
  compatibility with beneficial microorganisms: compatible

## O=C([O-])[C@H](O)[C@@H](O)[C@H](O)[C@H](O)CO.[Na+] [sodium gluconate]
[4]
  compatibility with beneficial microorganisms: compatible

## C12-C14 monoethanolamide-7EO-4PO [C42 MEA Amide-7EO-4PO]
[3]; [8]
  biological activity (haze), low foam alkoxylate with additives: increased biological activity

## calcium alkyl benzene sulfonate
Bacillus spore blend; 7.5 wt % surfactant actives, 0.5 wt % of each of L-alanine, Mg(NO3)2 and KCl, diluted to 2.0 wt %
  haze after 7 days, equal amounts of the additive components: some increase in haze
Bacillus spore blend; 7.5 wt % surfactant actives, 1.0 wt % L-Alanine + 0.25 wt % each of KCl and Mg(NO3)2, diluted to 2.0 wt %
  haze after 7 days, L-alanine as the majority additive component: some increase in haze
Bacillus spore blend; 7.5 wt % surfactant actives, 1.0 wt % Mg(NO3)2 and 0.25 wt % each of L-alanine and KCl, diluted to 2.0 wt %
  haze after 7 days, Mg(NO3)2 as the majority additive component: some increase in haze
Bacillus spore blend; [9]
  haziness after 7 days, surfactant without additive (negative control): reduced haziness

## cocoamidopropyl hydroxysultaine [AMPHOSOL® CS-50]
[3]; surfactant 0.2 wt % active, 0.09 wt % L-alanine, 0.09 wt % potassium nitrate, 0.02 wt % magnesium chloride hexahydrate, 7 days
  biological activity (haze) of bacterial spores, surfactant with additives: shows haze, indicative of biological activity
[3]; surfactant 0.2 wt % active, no additive, 1×10^7 CFU/g, 7 days orbital shaking
  biological activity (haze) of bacterial spores, surfactant without additives: inhibits biological activity

## isodecyl-1PO-8EO [DA-1PO-8EO]
[3]; [8]
  biological activity (haze), low foam alkoxylate with additives: increased biological activity
[3]; surfactant 0.2 wt % active, 1.0 wt % TOXIMUL 8240, no additive, 7 days
  biological activity (haze), low foam alkoxylate without additives: the most sign of inhibition

## sodium laureth sulfate [alkyl ether sulfate]
Bacillus spore blend; [9]
  haze after 7 days, 1.5 wt % TOXIMUL 8240, no additive: lack of haze
  haze after 7 days, no additive, no TOXIMUL 8240: lack of haze
Bacillus spore blend; concentrate 7.5 wt % surfactant actives, 0.75 wt % potassium chloride, 0.75 wt % magnesium nitrate, 1.5 wt % TOXIMUL 8240, diluted to 2.0 wt %
  haze after 7 days, additive and TOXIMUL 8240: increase in haze
Bacillus spore blend; concentrate 7.5 wt % surfactant actives, 0.75 wt % potassium chloride, 0.75 wt % magnesium nitrate, diluted to 2.0 wt %
  haze after 7 days, additive, no TOXIMUL 8240: lack of haze
